Values quoted from earlier work, collected in paper PMC3800486 (Amino acids, 2013).

System: polo-like kinase 1 (Plk1) polo box domain (PBD)
Conditions: previously shown; ref Yun et al. 2009; Liu et al. 2011; Liu et al. 2012b, a

Substance: Ac-Pro-Leu-His-Ser-Pmab-amide
- affinity for the Plk1 PBD (in words): good affinity
